This note sets out measurements from US20210308077A1, “COMBINATIONS INCLUDING BETA-ADRENORECEPTOR AGONISTS FOR TREATMENT OF PARKINSON`S DISEASE AND MOVEMENT DISORDERS” (The Brigham and Women`s Hospital, Inc., priority 2017, published 2021).

The structures appear in SMILES notation.

Common to all, as to assay type: cell-based, human
For one test, the system named is SNCA mRNA. Nature of the test: SNCA expression in SNCA-triplication iPSC-derived neurons. The settings on record: SNCA-triplication iPSC-derived neurons cultured for 8 weeks, 20 μM for three days. Here is the method: To begin neural differentiation, NPCs were dissociated with accutase and re-plated on matrigel-coated T75 flasks (CytoOne). The next day medium was fully changed to Neural Differentiation (ND) medium, which is NB medium supplemented with recombinant human BDNF and GNDF (both at 10 ng/mL; R&D Systems) and dibutyryl cyclic AMP (500 μM; Sigma), and without FGF-2. Thereafter, media was half-changed every other day. On day 7-9, differentiating neurons were gently dissociated to single cell suspension and then resuspended in pre-chilled Hank's balanced salt solution (HBSS; Gibco/Life Technologies) supplemented with 0.1% bovine serum albumin (Gibco/Life Technologies). After a wash step, cells were plated on 6- or 24-well plates pre-coated with poly-ornithine and laminin (BD Biocoat). […]
Total RNA from flash-frozen mice brain tissue, rodent primary cells, human neuroblastoma cells and iPSC-derived neuronal cells was isolated using TRIzol® (Life Technologies) following the manufacturer's protocol. RNA concentration was measured using NanoDrop spectrophotometer (Thermo Fisher Scientific, Wilmington, De.). […] Quantitative PCR was performed using TaqMan Universal PCR Master Mix (Applied Biosystems) on an ABI 7900HT instrument (Applied Biosystems) as described previously (31). […] Expression values were analyzed using the comparative threshold cycle method (31).

A further test has as its system H3K27Ac. In words: immunoblot with antibody against H3K27Ac in SK-N-MC cells. The settings on record: vs vehicle-treated cells. As to the method:
For western blot analysis, protein samples (20 μg) were run on a 4-20% gradient SDS-polyacrylamide gel (Biorad) and transferred onto a polyvinylidene fluoride (PVDF) membrane filter (0.2 μm; Biorad) using an electroblot apparatus (Bio-Rad, Hercules, Calif.) at 100V for 1 h in transfer buffer (25 mM Tris-HCl, 192 mM glycine, 0.1% SDS, 20% (v/v) methanol). The membrane was incubated in blocking solution (50 mM Tris-HCl, 200 mM NaCl, 1 mM MgCl2, pH 7.4) containing 5% non-fat dry milk powder for 1 hour at room temperature. The membrane was processed through sequential incubations with primary antibody overnight at 4° C. followed by incubation with horseradish peroxidase-conjugated species specific secondary antibody at 1:250 dilutions (Thermo Scientific Pierce). Immunoreactive proteins on the membrane were visualized using the SuperSignal™ West Pico Chemiluminescent kit (Thermo Scientific Pierce). Scanned western blots were analyzed using ImageJ software, version 1.47. Pictures were inverted and usually the background signal from an empty lane was subtracted to obtain specific signals for each lane.
On the technique in general: Immunoblotting shows a protein as a band on a membrane.

In test [1] the test system is NPCs carrying the SNCA triplication. In words: MitoSox assay of mitochondria-associated superoxide in SNCA-triplication NPCs exposed to rotenone. As to conditions: 20 μM rotenone, 20 μM clenbuterol. Here is the method: Patient-derived NPCs carrying the familial SNCA triplication were generated as described previously (28). NPCs were seeded at […] in 96-well plates (Greiner Cellcoat μClear) for HTS plate reader analysis (Polarstar Omega, BMG). For experiments with toxicants and inhibitors, NPCs were cultured under the following conditions for 18 hours unless specified differently in the experiment procedures: Standard NPC growth medium, growth medium plus 20 μM rotenone (Sigma).
For the Plate Reader HTS, each experiment was conducted with 6 replicates per cell line and treatment regimen. NPCs were treated with 20 μM clenbuterol for four days. Signals from individual wells were acquired with integration of fluorescence signals over 1 second duration by bottom read in orbital mode (8-spot measurements with 2 mm radius). […]
For the MitoSox assay for the detection of mitochondria-associated superoxide levels, adherent NPCs in 96-well plates were incubated with 2 μM MitoSOX™ (Ex./Em. 510/580 nm) and MitoTracker® Green (485/520 nm) (both Life Technologies) in high glucose without phenol red (Life Technologies), containing supplements without antioxidants (Life Technologies) for 15 min at 37° C. in the dark. […] Fluorescence was detected by sequential readings, and MitoSOX™ signals were normalized to mitochondrial content (Mitotracker®) and cell number (Hoechst).

As for `CC(C)(C)NCC(O)c1cc(Cl)c(N)c(Cl)c1` (stereo not drawn) [clenbuterol], in the test on SNCA mRNA, the SNCA expression entry is recorded as “reduced”. The “H3K27Ac levels (Western blotting)” value in the test on H3K27Ac is listed as “decreased”. Moreover, the “mitochondria associated superoxide production” value in test [1] is “ameliorated this increased mitochondria associated superoxide production”.
